Legend:
[1] = test system: ACh release; assay: Test of the enhancing effect of ACh release (brain microdialysis in freely moving SHRSP); assay type: in vivo, rat; details: for enhancement of ACh release (percent change over baseline): perfused for 20 minutes through microdialysis probe (10^-7 to 10^-5 M)
Excerpt: Test animals: Male stroke-prone spontaneously hypertensive rats (SHRSP) at 13 weeks of age, which received 1% NaCl solution instead of water for 5 weeks prior to the experiment. Test method: SHRSP were anesthetized and a guide cannula was implanted into the thalamus, dorsal hippocampus and prefrontal cortex. After recovery, a concentric microdialysis probe was inserted into the guide cannula and perfused with normal Ringer solution containing 10^−5 M eserine (SIGMA, St. Louis, USA) at a constant flow rate of 2 μl/min under freely moving condition. […] The dialysates for every 20 minutes were collected and injected into the high-pressure liquid chromatography system to quantify extracellular ACh levels. ACh release was expressed as percent change over the average of three consecutive stable samples collected before drug perfusion.

[2] = test system: SHRSP; assay: Test of improving effect of disturbed sleep pattern (EEG/EMG, REMS); assay type: in vivo, rat; details: 15 mg/kg orally twice daily over 5 consecutive days, FIG. 7
Excerpt: Test animals: Male SHRSP at 13 weeks of age, which received 1% NaCl solution instead of water over 5 weeks, and Wistar Kyoto rats (WKY) at the same age.
Test method: Animals were anesthetized, and electrodes for electroencephalogram (EEG) and a sensor for brain temperature were implanted into the cerebral cortex and electrodes for electromyogram (EMG) were implanted into the back cervical muscle. All variables were continuously recorded for 7 days, and the behavioral states of rats were classified into wakefulness, REMS, NREMS by analyzing the amplitude and frequency of EEG and EMG waves. 1-p-Anisoyl-2-pyrrolidinone at 15 mg/kg or vehicle was administered orally twice daily (morning and evening) over 5 consecutive days.

[3] = test system: aged Wistar rats; assay: Test of the ameliorating effect of impaired circadian rhythm (food-motivated anticipatory activity); assay type: in vivo, rat; details: 30 and 100 mg/kg orally once daily for 7 consecutive days, FIG. 5
Description: Test animals: Male Wistar rats at 9 weeks of age (young group) and around 30 months of age (aged group).
Test method: Animals were individually housed and had free access to food and water. After fasting for 24 hours (Day 0), feeding was restricted to only 1 hour/day from 13:30 for 6 consecutive days. Food was again withheld on Day 7, and food-motivated circadian anticipatory activity was investigated. 1-p-Anisoyl-2-pyrrolidinone at 30 and 100 mg/kg or vehicle was orally administered immediately after the feeding time, once daily for 7 consecutive days. Spontaneous motor activity was measured in each home cage.

[4] = test system: rats; details: repeated oral administration over 4 weeks, up to 600 mg/kg
[5] = test system: rats; assay: Acute toxicity after oral administration to rats (LD50); assay type: in vivo, rat; details: both sexes
[6] = as above; assay type: in vivo, rat; details: rat, in vivo
[7] = dorsal hippocampus of SHRSP, FIG. 2
[8] = prefrontal cortex of SHRSP, FIG. 3

Row | Compound | effect on ACh release ([1]; any cerebral regions (thalamus, dorsal hippocampus, prefrontal cortex) of SHRSP) | reduced diurnal REMS [2] | impaired food-motivated anticipatory activity [3] | enhancement of ACh release (percent change over baseline) [1, 7] [%] | enhancement of ACh release (percent change over baseline) [1, 8] [%] | enhancement of ACh release (percent change over baseline) ([1]; thalamus of SHRSP, FIG. 1) [%] | sub-acute toxicity, such as lethality and abnormality in hematological, hematobiochemical and toxipathological tests [4] | acute toxicity (LD50 values) [5] | LD50 ([6]; female animals) [mg/kg] | LD50 ([6]; male animals) [mg/kg]
1 | COc1ccc(C(=O)N2CCCC2=O)cc1 [1-p-anisoyl-2-pyrrolidinone, 1-p-Anisoyl-2-pyrrolidinone] | not observed | ameliorated | significantly ameliorated |  |  |  |  |  |  | 
2 | COc1ccc(C(=O)NCCCC(=O)O)cc1 [N-anisoyl-GABA, N-anisoyl-γ-aminobutyric acid] |  |  |  | 48 | 70 | 32 | not observed | more than 5,000 mg/kg |  | 
3 | COc1ccc(C(=O)O)cc1 [p-anisic acid] |  |  |  | 51 | 61 | 22 | not observed |  | 2120 | 1810

Source: patent US20030073744A1, “Agent for enhancing cerebral acetylcholine release” (priority 1999, published 2003)
